In article PMC7929976, “Eriodictyol as a Potential Candidate Inhibitor of Sortase A Protects Mice From Methicillin-Resistant Staphylococcus aureus-Induced Pneumonia” (Frontiers in Microbiology, 2021):
pIC50: −log10 of the molar value.

Target: T1, Sortase A (SrtA) (Staphylococcus aureus, UniProt Q2FV99)
T1 construct: pET28a-SrtA, recombinant, nickel-purified
Assay: FRET cleavage assay with purified recombinant SrtA; reversible by dilution; binding supported by fluorescence quenching (KA […] L/mol)
Assay type: biochemical

T1 sequence (Q2FV99 whole entry): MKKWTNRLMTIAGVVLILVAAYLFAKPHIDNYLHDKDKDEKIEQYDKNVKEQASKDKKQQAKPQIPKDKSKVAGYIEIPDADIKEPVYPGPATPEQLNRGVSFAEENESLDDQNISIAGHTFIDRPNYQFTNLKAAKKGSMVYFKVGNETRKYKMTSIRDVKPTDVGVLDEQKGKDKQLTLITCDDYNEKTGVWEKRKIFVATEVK

Compound `O=C1C[C@@H](c2ccc(O)c(O)c2)Oc2cc(O)cc(O)c21` [eriodictyol] has a pIC50 of 5.11.
